Data from patent US6387893B1, “Spirotricyclic substituted azacycloalkane derivatives and uses thereof” (Merck & Co., Inc., priority 1999, dated 2002).
Where a name gives a salt, the structure may show the parent alone.

target: T1, human alpha 1a adrenergic receptor (Homo sapiens, UniProt P35348); test: Screening assay: alpha 1a adrenergic receptor binding ([125I]-HEAT competition); settings: membranes from stably transfected human alpha 1a cell line (ATCC CRL 11140), 100 pM [125I]-HEAT
T1 sequence (P35348 1-466): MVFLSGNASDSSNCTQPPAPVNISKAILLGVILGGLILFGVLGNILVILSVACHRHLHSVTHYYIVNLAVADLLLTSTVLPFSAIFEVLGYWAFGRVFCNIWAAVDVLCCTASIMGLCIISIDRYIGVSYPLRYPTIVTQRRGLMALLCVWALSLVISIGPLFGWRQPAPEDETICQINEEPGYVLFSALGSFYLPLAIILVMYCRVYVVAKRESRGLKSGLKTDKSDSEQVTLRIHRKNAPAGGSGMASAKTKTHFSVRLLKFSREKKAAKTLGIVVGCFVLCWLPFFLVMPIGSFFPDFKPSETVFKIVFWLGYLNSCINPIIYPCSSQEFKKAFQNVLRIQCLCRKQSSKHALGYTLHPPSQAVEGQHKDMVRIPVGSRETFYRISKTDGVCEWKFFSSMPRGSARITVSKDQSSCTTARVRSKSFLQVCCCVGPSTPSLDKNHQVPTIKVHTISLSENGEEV
Procedure: Screening Assay: Alpha 1a Adrenergic Receptor Binding
Membranes prepared from the stably transfected human alpha 1a cell line (ATCC CRL 11140) were used to identify compounds that bind to the human alpha 1a adrenergic receptor. These competition binding reactions (total volume=200 μl) contained 50 mM Tris-HCl pH. 7.4, 5 mM EDTA, 150 mM NaCl, 100 pM [^125I]-HEAT, membranes prepared from the alpha 1a cell line and increasing amounts of unlabeled ligand. Reactions were incubated at room temperature for one hour with shaking. Reactions were filtered onto Whatman GF/C glass fiber filters with a Inotec 96 well cell harvester. Filters were washed three times with ice cold buffer and bound radioactivity was determined (Ki).

SMILES	Ki [nM]
COCC1=C(C(=O)OC)[C@H](c2ccc(F)c(F)c2)N(C(=O)NCCCN2CCC3(CC2)c2ccccc2-c2cccnc23)C(=O)N1 [Example 53, 1,2,3,6-tetrahydro-1-[3-((spiro(9H-indeno[2,1-b]pyridine)-9,4′-piperidin)-1′-yl)propylaminocarbonyl]-5-methoxycarbonyl-4-methoxymethyl-6(S)-(3,4-difluorophenyl)-2-oxopyrimidine]	< 20
Cc1ccc(C2(c3ccc(C)cc3)NC(=O)N(CCCN3CCC4(CC3)c3ccccc3-c3ccc(Br)cc34)C2=O)cc1 [Example 10, 1′-[3-(5,5-Bis-p-tolyl-2,4-dioxoimidazolidin-3-yl)propyl]-2-bromospirofluorene-9,4′-piperidine]	< 20
COCC1=C(C(=O)OC)[C@H](c2ccc(F)c(F)c2)N(C(=O)NCCCN2CCC3(CC2)c2ccccc2-c2ccccc23)C(=O)N1 [Example 8, 1,2,3,6-tetrahydro-1-[(spirofluorene-9,4′-piperidin-1′-yl)propyl]aminocarbonyl-5-methoxycarbonyl-4-methoxymethyl-6(S)-(3,4-difluorophenyl)-2-oxopyrimidine]	< 20
Cc1ccc(C2(c3ccc(C)cc3)NC(=O)N(CCCN3CCC4(CC3)c3ccccc3-c3ccccc34)C2=O)cc1 [Example 4, 1′-[3-(5,5-Bis-p-tolyl-2,4-dioxoimidazolidin-3-yl)propyl]spirofluorene-9,4′-piperidine]	< 20
COCC1=C(C(=O)OC)[C@H](c2ccc(F)c(F)c2)N(C(=O)NCCCN2CCC3(CC2)c2ccccc2-c2ncccc23)C(=O)N1 [Example 49]	< 20
COCC1=C(C(=O)OC)[C@H](c2ccc(F)c(F)c2)N(C(=O)NCCCN2CCC3(CC2)c2ccccc2S(=O)(=O)c2ccccc23)C(=O)N1 [Example 33, 1,2,3,6-tetrahydro-1-[(10,10-dioxo-spirothioxanthene-9,4′-piperidin-1′-yl)propyl]aminocarbonyl-5-methoxycarbonyl-4-methoxymethyl-6(S)-(3,4-difluorophenyl)-2-oxopyrimidine]	< 20
O=C1OC[C@H](c2ccc(F)c(F)c2)N1CCCCCN1CCC2(CC1)c1ccccc1CCc1ccccc12 [Example 58, 1′-{5-[4(S)-(3,4-difluorophenyl)-2-oxooxazolidin-3-yl]-pentyl}-(10,11-dihydrospiro-5H-dibenzo[a,d]cycloheptene)-5,4′-piperidine]	< 20
COCC1=C(C(=O)OC)[C@H](c2ccc(F)c(F)c2)N(C(=O)NCCCN2CCC3(CC2)c2ccccc2[S+]([O-])c2ccccc23)C(=O)N1 [Example 27, 1,2,3,6-tetrahydro-1-[(10-oxo-spirothioxanthene-9,4′-piperidin-1′-yl)propyl]aminocarbonyl-5-methoxycarbonyl-4-methoxymethyl-6(S)-(3,4-difluorophenyl)-2-oxopyrimidine]	< 20

Further lines, results first:

Ki [nM]	SMILES
< 20	O=C(NCCCN1CCC2(CC1)c1ccccc1S(=O)(=O)c1ccccc12)N1C(=O)OC[C@@H]1c1ccc(F)c(F)c1 [Example 32, 1′-{3-[(4S)-(3,4-Difluorophenyl)-2-oxooxazolidin-3-carbonylamino]propyl}-(10,10-dioxo-spirothioxanthene-9,4′-piperidine)]
< 20	O=C(NCCCN1CCC2(CC1)c1ccccc1[S+]([O-])c1ccccc12)N1C(=O)OC[C@@H]1c1ccc(F)c(F)c1 [Example 26, 1′-{3-[(4S)-(3,4-Difluorophenyl)-2-oxooxazolidin-3-carbonylamino]propyl}-(10-oxo-spirothioxanthene-9,4′-piperidine)]
< 20	O=C(NCCCN1CCC2(CC1)c1ccccc1CCc1ccccc12)N1C(=O)OC[C@@H]1c1ccc(F)c(F)c1 [Example 57, 1′-{3-[4(S)-(3,4-difluorophenyl)-2-oxooxazolidin-3-carbonylamino]-propyl}-(10,11-dihydrospiro-5H-dibenzo[a,d]cycloheptene)-5,4′-piperidine]
< 20	COCC1=C(C(=O)OC)[C@H](c2ccc(F)c(F)c2)N(C(=O)NCCCN2CCC3(CC2)c2ccccc2-c2ccc(F)cc23)C(=O)N1 [Example 14, 1,2,3,6-tetrahydro-1-[((2-fluorospirofluorene-9,4′-piperidin)-1′-yl)propyl]aminocarbonyl-5-methoxycarbonyl-4-methoxymethyl-6(S)-(3,4-difluorophenyl)-2-oxopyrimidine]
< 20	O=C(NCCCN1CCC2(CC1)c1ccccc1Oc1ccc(Cl)cc12)N1C(=O)OC[C@@H]1c1ccc(F)c(F)c1 [Example 40, 1′-{3-[(4S)-(3,4-Difluorophenyl)-2-oxooxazolidin-3-carbonylamino]propyl}-2-chlorospiroxanthene-9,4′-piperidine]
< 20	O=C(NCCCN1CCC2(CC1)c1cc(F)ccc1Oc1ccc(F)cc12)N1C(=O)OC[C@@H]1c1ccc(F)c(F)c1 [Example 44, 1′-{3-[(4S)-(3,4-Difluorophenyl)-2-oxooxazolidin-3-carbonylamino]propyl}-2,7-difluorospiroxanthene-9,4′-piperidine]
< 20	O=C(NCCCN1CCC2(CC1)c1ccccc1-c1ccccc12)N1C(=O)OC[C@@H]1c1ccc(F)c(F)c1 [Example 6, 1′-{3-[(4S)-(3,4-Difluorophenyl)-2-oxooxazolidin-3-carbonylamino]propyl}spirofluorene-9,4′-piperidine]
< 20	O=C(NCCCN1CCC2(CC1)c1cc(Cl)ccc1Oc1ccc(Cl)cc12)N1C(=O)OC[C@@H]1c1ccc(F)c(F)c1 [Example 42, 1′-{3-[(4S)-(3,4-Difluorophenyl)-2-oxooxazolidin-3-carbonylamino]propyl}-2,7-dichlorospiroxanthene-9,4′-piperidine]

system: not given; test: not given; settings: not given

SMILES	melting point [°C]
COCC1=C(C(=O)OC)[C@H](c2ccc(F)c(F)c2)N(C(=O)NCCCN2CCC3(CC2)c2ccccc2-c2ncccc23)C(=O)N1 (as salt: hydrochloride) [Example 49]	157 to 180
O=C1OC[C@H](c2ccc(F)c(F)c2)N1CCCCCCN1CCC2(CC1)c1ccccc1Sc1ccccc12 (as salt: HCl) [Example 20, 4-(S)-(3,4-Difluorophenyl)-3-[6-(spirothioxanthen-9,4′-piperidin-1′-yl)-hexyl]-oxazolidin-2-one]	90 to 130
O=C1OC[C@H](c2ccc(F)c(F)c2)N1CCCCCN1CCC2(CC1)c1ccccc1CCc1ccccc12 (as salt: hydrochloride) [Example 58, 1′-{5-[4(S)-(3,4-difluorophenyl)-2-oxooxazolidin-3-yl]-pentyl}-(10,11-dihydrospiro-5H-dibenzo[a,d]cycloheptene)-5,4′-piperidine]	232 to 236
COCC1=C(C(=O)OC)[C@H](c2ccc(F)c(F)c2)N(C(=O)NCCCN2CCC3(CC2)c2ccccc2S(=O)(=O)c2ccccc23)C(=O)N1 (as salt: HCl) [Example 33, 1,2,3,6-tetrahydro-1-[(10,10-dioxo-spirothioxanthene-9,4′-piperidin-1′-yl)propyl]aminocarbonyl-5-methoxycarbonyl-4-methoxymethyl-6(S)-(3,4-difluorophenyl)-2-oxopyrimidine]	158 to 196
COCC1=C(C(=O)OC)C(c2ccc(F)c(F)c2)N(C(=O)NCCCN2CCC3(CC2)c2ccccc2Sc2ccccc23)C(=O)N1 (stereo not drawn) (as salt: HCl)	140 to 170

Other lines, results leading:

melting point [°C]	SMILES
146 to 177	O=C(NCCCN1CCC2(CC1)c1ccccc1CCc1ccccc12)N1C(=O)OC[C@@H]1c1ccc(F)c(F)c1 (as salt: hydrochloride) [Example 57, 1′-{3-[4(S)-(3,4-difluorophenyl)-2-oxooxazolidin-3-carbonylamino]-propyl}-(10,11-dihydrospiro-5H-dibenzo[a,d]cycloheptene)-5,4′-piperidine]
184 to 193	O=C(NCCCN1CCC2(CC1)c1ccccc1[S+]([O-])c1ccccc12)N1C(=O)OC[C@@H]1c1ccc(F)c(F)c1 (as salt: HCl) [Example 26, 1′-{3-[(4S)-(3,4-Difluorophenyl)-2-oxooxazolidin-3-carbonylamino]propyl}-(10-oxo-spirothioxanthene-9,4′-piperidine)]
140 to 176	O=C(NCCCN1CCC2(CC1)c1ccccc1Sc1ccccc12)N1C(=O)OC[C@@H]1c1ccc(F)c(F)c1 (as salt: HCl)
90 to 130	O=C1OC[C@H](c2ccc(F)c(F)c2)N1CCCCCN1CCC2(CC1)c1ccccc1Sc1ccccc12 (as salt: HCl) [Example 19, 4-(S)-(3,4-Difluorophenyl)-3-[5-(spirothioxanthen-9,4′-piperidin-1′-yl)-pentyl]-oxazolidin-2-one]
158 to 187	O=C(NCCCN1CCC2(CC1)c1ccccc1S(=O)(=O)c1ccccc12)N1C(=O)OC[C@@H]1c1ccc(F)c(F)c1 (as salt: HCl) [Example 32, 1′-{3-[(4S)-(3,4-Difluorophenyl)-2-oxooxazolidin-3-carbonylamino]propyl}-(10,10-dioxo-spirothioxanthene-9,4′-piperidine)]
97 to 132	O=C1OCC(c2ccc(F)c(F)c2)N1CCCCN1CCC2(CC1)c1ccccc1Sc1ccccc12 (stereo not drawn) (as salt: HCl)
